Assay results taken from patent publication EP0063826A2, “2-Amino-benzoic-acid derivatives, their preparation and their use as medicines or intermediates” (Dr. Karl Thomae GmbH, priority 1980, dated 1981).

Test system: Mäusen
Test: Acute oral toxicity in mice (orienting)
Type: in vivo
Conditions: 2 000 mg/kg by gavage, group of 10, observation 14 days
Protocol: Die akute Toxizität wurde orientierend an Gruppen von 10 Mäusen (5 weibliche und 5 männliche Mäuse; Beobachtungszeit: 14 Tage) nach Gabe einer Dosis von 2 000 mg/kg pro Tier in Methylcellulose-Suspension per Schlundsonde bestimmt: […]

O=C(O)c1cc(Cl)ccc1N1CCC2(CC1)OCCO2 [Substanz A, 5-Chlor-2-(1,4-dioxa-8-aza-spiroL4,6/decan-8-yl)-benzoe-säure]
Tieren gestorben: 0 von 10
